Assays:
Assay type in all cases: cell-based
[1] = test system: human dermal fibroblasts (HDFs); test: UCP1 protein immunostaining, comparison of four inhibitors (Example 16); conditions: ALK5 inhibitor II 4 μM, LY2157299 8 μM; for UCP1 protein expression by immunostaining (induction into brown adipocytes): SB431542 4 μM, D4476 4 μM up to Day 9, day 14, FIG. 16A, 16B
Procedure: Thereafter, the cells were cultured in an adipocyte induction medium free of any compound of ALK5 inhibitor II, SB431542, LY215799 and D4476 during Day 9-Day 14. On day 14, the medium was removed by suction from each well, and the cells were washed with PBS(−).

[2] = test system: human dermal fibroblasts (HDFs); test: UCP1 protein immunostaining, fluorescence intensity (Example 8); conditions: induction medium + T3 + Rosiglitazone, D4476, SB431541, ALK5 inhibitor II, FSK 2 μM, PD0325901 1 μM, day 14, FIG. 8A-C
Procedure: (§1) The next day, the culture supernatant was removed by suction and, as described in the Figure, a normal medium, an adipocyte induction medium, or an adipocyte induction medium added with each compound and the like was added at 500 μL/well. […] The concentrations of the additives are as follows: • T3: 1 nM • Rosiglitazone: 1 μM • […]: 2 μM • SB431541: 2 μM • ALK5 inhibitor II: 2 μM • PD0325901: 1 μM • Forskolin (FSK): 2 μM. The culture medium was substituted by a fresh one every 3-4 days and the cells were cultured up to day 14. […] The cells were photographed at a magnification of 200 with a fluorescence microscope and the fluorescence intensity was measured.

[3] = test system: human dermal fibroblasts (HDFs); test: AdipoQ gene mRNA by real time RT-PCR (Example 6); conditions: induction medium + T3 + Rosiglitazone, D4476, SB431542, ALK5 Inhibitor II 2 μM, PD0325901 1 μM, day 14, FIG. 6
Procedure: This was seeded in a 24-well plate at a concentration of 1×10^4 cells/well (day 0), and culturing was started at 5% CO2/95% humid air, 37° C. The next day, the culture supernatant was removed by suction and, as described in the Figure, a normal medium, an adipocyte induction medium, or an adipocyte induction medium added with each low-molecular-weight compound and the like was added at 500 μL/well. […] The concentrations of the additives are as follows: • T3: 1 nM • Rosiglitazone: 1 μM • D4476: 2 μM. • Pifithrin alpha [p53 inhibitor]: 5 μM • PD0325901: 1 μM • SB431542: 2 μM • ALK5 Inhibitor II: 2 μM. The culture medium was substituted by a fresh one every 3-4 days and the cells were cultured up to day 14.

[4] = test system: human dermal fibroblasts (HDFs); test: Oil Red O staining of fibroblasts cultured with compounds (Example 1); conditions: adipocyte induction medium with T3 1 nM and Rosiglitazone 1 μM, D4476 2 μM, SB431542 2 μM, ALK5 Inhibitor II 2 M, Pifithrin alpha 5 μM, day 14, FIG. 1
Procedure: The next day, the culture supernatant was removed by suction and, as described in the Figure, a normal medium, an adipocyte induction medium, or an adipocyte induction medium added with the compound and the like was added at 500 μL/well.
The adipocyte induction medium is a 10% FBS-added DMEM+MDI medium (10% FBS-added DMEM supplemented with 0.5 mM isobutylmethylxanthine (IBMX), 0.5 μM dexamethason and 1 μg/mL Insulin).
The concentrations of the additives are as follows: • T3: 1 nM • Rosiglitazone: 1 μM • D4476: 2 μM • Pifithrin alpha [p53 inhibitor]: 5 μM • SB431542: 2 μM • ALK5 Inhibitor II: […].
The culture medium was substituted by a fresh one every 3-4 days and the cells were cultured up to day 14.
After washing 3 times with sterile distilled water, Oil Red O staining solution was added, and the mixture was incubated at room temperature for 15 min. Then, the cells were washed with sterile distilled water and photographed at a magnification of 100 with a phase contrast microscope.

[5] = test system: human dermal fibroblasts (HDFs); test: UCP1 gene mRNA, comparison of four inhibitors at 4-16 μM (Example 15); conditions: for induction efficiency into brown adipocytes (order): compound at 4, 8, 12 or 16 μM up to Day 9, UCP1 mRNA on day 14, FIG. 15; for UCP1 gene expression (conversion to brown adipocytes): compound at 4, 8, 12 or 16 μM up to Day 9, then without compound Day 9-14, FIG. 15
Procedure: (Day −1). In the control (Ctrl) group, the culture supernatant of the next day (Day 0) was removed by suction and the cells were cultured in a normal medium up to day 14 while substituting the medium with a fresh one once every other day. In groups other than the control (Ctrl) group, the culture supernatant was removed by suction on day 0, an adipocyte induction medium or an adipocyte induction medium added with any of ALK5 inhibitor II, SB431542, LY2157299 and D4476 at a concentration of 4 μM, 8 μM, 12 μM or 16 μM respectively was added at 1 mL/well.
Thereafter, the cells were cultured in an adipocyte induction medium free of any compound of ALK5 inhibitor II, SB431542, LY215799 and D4476 during Day 9-Day 14.

[6] = test system: human dermal fibroblasts (HDFs); test: BODIPY staining of lipid droplets (Example 7); conditions: induction medium + T3 + Rosiglitazone, compounds 2 μM, day 14, FIG. 7A, 7B
Procedure: as §1, with “each low-molecular-weight” for “each”, “II:” for “II: 2 μM • PD0325901: 1 μM • Forskolin (FSK):”

[7] = test system: human dermal fibroblasts (HDFs); test: CIDEA gene mRNA by real time RT-PCR (Example 4); conditions: induction medium + T3 + Rosiglitazone, compounds 2 μM, day 14, FIG. 4
Procedure: The next day, the culture supernatant was removed by suction and, as described in the Figure, a normal medium, an adipocyte induction medium, or an adipocyte induction medium added with each compound and the like was added at 500 μL/well. […] The concentrations of the additives are as follows: • T3: 1 nM • Rosiglitazone: 1 μM • D4476: 2 μM • Pifithrin alpha [p53 inhibitor]: 5 μM • SB431542: 2 μM • ALK5 Inhibitor II: 2 μM. The culture medium was substituted by a fresh one every 3 4 days and the cells were cultured up to day 14.

| SMILES | UCP1 protein expression by immunostaining (induction into brown adipocytes) [1] | strength of induction of UCP1 expression (order) ([1]; immunostaining day 14, FIG. 16) | UCP1 protein expression by immunostaining (conversion to brown adipocytes) [2] | mRNA expression of AdipoQ gene (conversion to brown adipocytes) [3] | Oil Red O staining [4] | induction efficiency into brown adipocytes (order) [5] | UCP1 gene expression (conversion to brown adipocytes) [5] | lipid droplets stained with BODIPY (conversion to brown adipocytes) [6] | mRNA expression of CIDEA gene (conversion to brown adipocytes) [7] |
| --- | --- | --- | --- | --- | --- | --- | --- | --- | --- |
| Cc1cccc(-c2n[nH]cc2-c2ccc3ncccc3n2)n1 [ALK5 Inhibitor II, 2-(3-(6-Methylpyridin-2-yl)-1H-pyrazol-4-yl)-1,5-naphthyridine] | induced into brown adipocytes expressing UCP1 protein | most strongly induced | converted to brown adipocytes expressing UCP1 protein | converted to brown adipocytes expressing mRNA of AdipoQ gene | Remarkable Oil Red O staining | most strongly induced into brown adipocytes | converted to brown adipocytes strongly expressing UCP1 gene | converted to brown adipocytes having lipid droplets stained with BODIPY | converted to brown adipocytes expressing mRNA of CIDEA gene |
| NC(=O)c1ccc(-c2nc(-c3ccc4c(c3)OCCO4)c(-c3ccccn3)[nH]2)cc1 [D4476, 4-[4-(2,3-dihydro-1,4-benzodioxin-6-yl)-5-(2-pyridlnyl-)1H-imidazol-2-yl]-benzamide] | induced into brown adipocytes expressing UCP1 protein |  | converted to brown adipocytes expressing UCP1 protein | converted to brown adipocytes expressing mRNA of AdipoQ gene | Remarkable Oil Red O staining | ALK5 inhibitor II>LY2157299>SB431541>D4476 | converted to brown adipocytes strongly expressing UCP1 gene | converted to brown adipocytes having lipid droplets stained with BODIPY | converted to brown adipocytes expressing mRNA of CIDEA gene |
